The assay has as its target T1, human FXR (NR1H4) (Homo sapiens, UniProt Q96RI1).
T1 construct: host or cells: CHO (Chinese hamster ovary) reporter cells
T1 sequence (Q96RI1 1-486): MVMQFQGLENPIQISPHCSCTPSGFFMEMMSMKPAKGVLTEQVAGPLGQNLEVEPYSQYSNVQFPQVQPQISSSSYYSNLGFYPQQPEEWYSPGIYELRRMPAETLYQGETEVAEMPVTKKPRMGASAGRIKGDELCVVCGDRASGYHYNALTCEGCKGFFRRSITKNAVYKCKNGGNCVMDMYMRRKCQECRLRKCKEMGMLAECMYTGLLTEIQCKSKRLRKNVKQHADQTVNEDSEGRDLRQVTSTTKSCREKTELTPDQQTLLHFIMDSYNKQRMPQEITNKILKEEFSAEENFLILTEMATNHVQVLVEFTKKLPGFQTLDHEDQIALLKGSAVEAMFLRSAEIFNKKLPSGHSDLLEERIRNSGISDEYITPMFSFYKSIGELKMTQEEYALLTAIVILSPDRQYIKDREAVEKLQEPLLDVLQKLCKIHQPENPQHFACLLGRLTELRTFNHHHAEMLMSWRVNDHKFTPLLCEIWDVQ
The assay can be described thus: Human FXR (NR1H4) Assay (Gal4 promoter driven luciferase reporter, CHO cells). In kind it is cell-based. The following applies: for EC50: FXR reporter assay in CHO cells expressing human NR1H4, 22 hours incubation, potency ranges; for Efficacy (%): normalized to CDCA set as 100%, FXR reporter assay in CHO cells. The source says: Human FXR (NR1H4) Assay Determination of a ligand mediated Gal4 promoter driven transactivation to quantify ligand binding mediated activation of FXR. FXR Reporter Assay kit purchased from Indigo Bioscience (Catalogue number: IB00601) to determine the potency and efficacy of compound developed by Enanta that can induce FXR activation. The principle application of this reporter assay system is to quantify functional activity of human FXR. The assay utilizes non-human mammalian cells, CHO (Chinese hamster ovary) cells engineered to express human NR1H4 protein (referred to as FXR). Reporter cells also incorporate the cDNA encoding beetle luciferase which catalyzes the substrates and yields photon emission. Luminescence intensity of the reaction is quantified using a plate-reading luminometer, Envision. Reporter Cells include the luciferase reporter gene functionally linked to an FXR responsive promoter. Thus, quantifying changes in luciferase expression in the treated reporter cells provides a sensitive surrogate measure of the changes in FXR activity. […] The assay is according to the manufacturer's instructions. In brief, the assay was performed in white, 96 well plates using final volume of 100 ul containing cells with different doses of compounds. Retrieve Reporter Cells from −80° C. storage. Perform a rapid thaw of the frozen cells by transferring a 10 ml volume of 37° C. cell recovery medium into the tube of frozen cells. Recap the tube of Reporter Cells and immediately place it in a 37° C. water bath for 5-10 minutes. Retrieve the tube of Reporter Cell Suspension from the water bath. Sanitize the outside surface of the tube with a 70% alcohol swab, and then transfer it into the cell culture hood. Dispense 90 μl of cell suspension into each well of the 96-well Assay Plate. Transfer the plate into 37° C. incubator, allowing the cells adherent to the bottom of the well. Dilute compounds in Dilution Plate (DP), and administrate to cells at Assay Plate (AP). DMSO content of the samples was kept at 0.2%. Cells were incubated for additional 22 hours before luciferase activities were measured. Thirty minutes before intending to quantify FXR activity, remove Detection Substrate and Detection Buffer from the refrigerator and place them in a low-light area so that they may equilibrate to room temperature. Remove the plate's lid and discard all media contents by ejecting it into an appropriate waste container. Gently tap the inverted plate onto a clean absorbent paper towel to remove residual droplets. Cells will remain tightly adhered to well bottoms. Add 100 μl of luciferase detection reagent to each well of the assay plate. Allow the assay plate to rest at room temperature for at least 5 minutes following the addition of LDR. Set the instrument (Envision) to perform a single 5 second “plate shake” prior to reading the first assay well. Read time may be 0.5 second (500 mSec) per well.
(In a reporter assay the amount or activity of a reporter protein is the signal.)

Some results are limits rather than exact numbers.

The results in this text go back to patent publication US10080742B2, “Isoxazole derivatives as FXR agonists and methods of use thereof” (Enanta Pharmaceuticals, Inc., priority 2016, dated 2018).

What is called EC50 is the concentration at which the effect is half-maximal. Higher therefore signals lower potency in that assay. For the compound `O=C(O)c1ccc2nc(N3CCC(OCc4c(-c5c(Cl)cccc5Cl)noc4C4CC4)CC3)sc2c1` [Compound (1), reference compound], the EC50 was under 100 nM and the “Efficacy (%)” value is recorded as 304%.

For `CN(C)S(=O)(=O)NC(=O)c1ccc2nc(N3CCC(OCc4c(-c5c(Cl)cccc5Cl)noc4C4CC4)CC3)sc2c1` [Example 26], the EC50 was under 100 nM and the “Efficacy (%)” value is listed as 129%.

As for `O=C(NS(=O)(=O)C1CC1)c1ccc2nc(N3CCC(OCc4c(-c5c(Cl)cccc5Cl)noc4C4CC4)CC3)sc2c1` [Example 11], the EC50 was 100 to 1000 nM and the “Efficacy (%)” value is listed as 122%.
